Source: patent US20250295646A1, “METHODS OF USE OF T-TYPE CALCIUM CHANNEL MODULATORS” (Praxis Precision Medicines, Inc., priority 2022, published 2025)

Legend:
[1] = tested on: adult patients with essential tremor; experiment: Essential tremor trial Example 16 Part B randomized withdrawal phase: TETRAS, mADL, ADL efficacy; assay type: in vivo, human; parameters: TETRAS mADL Mean CFB (SD): unit not given here; conditions: for TETRAS ADL LS Mean CFB / TETRAS CULS LS Mean CFB / TETRAS PS Item 6: Archimedes Spiral (Left) LS Mean CFB / TETRAS PS Item 6: Archimedes Spiral (Right) LS Mean CFB / TETRAS PS Item 7: Handwriting LS Mean CFB / TETRAS PSTS LS Mean CFB / TETRAS ULS LS Mean CFB / TETRAS mADL LS Mean CFB: change from randomization baseline; for TETRAS ADL Mean CFB (SD) / TETRAS CULS CTA (%) / TETRAS PS Item 6: Archimedes Spiral (Left) CTA (%) / TETRAS PS Item 6: Archimedes Spiral (Right) CTA (%) / TETRAS PS Item 7: Handwriting CTA (%) / TETRAS PSTS CTA (%) / TETRAS ULS CTA (%) / TETRAS mADL Mean CFB (SD): from randomization baseline
Description: A two part trial (Part A and Part B as described below) was conducted to study the efficacy, safety, tolerability, and pharmacokinetics of the compound of formula (I) in adult patients with essential tremor (ET).
Participants were males and females ages 18 and older with a clinical diagnosis of ET. Participants who have a history of any other medical, neurological, or psychiatric condition that may explain or cause tremor were excluded. Participants who have previously received treatment with formula (I) in any clinical trial (including Part A of the current trial for participants enrolling in Part B) were also excluded.
In Part B, an open label titration phase and a randomized, double-blind, placebo-controlled trial was conducted.

[2] = Example 16 Part B: treatment emergent adverse events, down-titration, discontinuation
Description: Patients were scheduled for Safety Follow-up on Day 70 (±1 day) in the clinic for the final clinical trial assessment.

[3] = Formula (I) group, Day 70 follow-up
[4] = Part B - RWD, RWAS, Formula (I) group, Day 56
[5] = Part B - RWD, RWAS, Formula (I) group, Day 70
[6] = Part B - RWD, RWAS, Formula (I) group, Randomization Baseline (Day 42 post-dose value)
[7] = Part B RWD, Formula (I) group, Day 56
[8] = Part B Randomized Withdrawal (N = 11), arm (Formula (I) or placebo) not stated
[9] = Part B, reported by the same patient

CC(C)(C)NC(=O)CN1CCC(CNC(=O)c2cc(F)cc(Cl)c2)CC1 [compound of formula (I), N-((1-(2-(tert-butylamino)-2-oxoethyl)piperidin-4-yl)methyl)-3-chloro-5-fluorobenzamide]
TETRAS ADL score, LS mean change from randomization baseline (Day 42) [1, 3]: 3.267 | TETRAS combined upper limb score, LS mean change from randomization baseline (Day 42) [1, 3]: 3.156 | increase in combined upper limb tremor amplitude [1, 3]: 28.1% | increase in upper limb tremor amplitude [1, 3]: 27.2% | mADL score, LS mean change from randomization baseline (Day 42) [1, 3]: 4.353 | TETRAS upper limb score, LS mean change from randomization baseline (Day 42) ([1]; Formula (I) group, Day 70 follow-up (2 weeks after cessation)): 1.653 | TETRAS ADL LS Mean Difference: Formula (I) - Placebo (95% CI) ([1]; Part B - RWD, RWAS, Day 56): −9.578 (−18.9020, −0.2546) | TETRAS CULS LS Mean Difference: Formula (I) - Placebo (95% CI) ([1]; Part B - RWD, RWAS, Day 56): −1.896 (−8.7365, 4.9451) | TETRAS PSTS LS Mean Difference: Formula (I) - Placebo (95% CI) ([1]; Part B - RWD, RWAS, Day 56): −3.025 (−11.2090, 5.1595) | TETRAS ULS LS Mean Difference: Formula (I) - Placebo (95% CI) ([1]; Part B - RWD, RWAS, Day 56): −0.253 (−4.9188, 4.4129) | TETRAS mADL LS Mean Difference: Formula (I) - Placebo (95% CI) ([1]; Part B - RWD, RWAS, Day 56): −8.439 (−15.3856, −1.4916) | TETRAS ADL LS Mean Difference: Formula (I) - Placebo (95% CI) ([1]; Part B - RWD, RWAS, Day 70): −5.988 (−16.8132, 4.8377) | TETRAS CULS LS Mean Difference: Formula (I) - Placebo (95% CI) ([1]; Part B - RWD, RWAS, Day 70): −0.964 (−6.5938, 4.6660) | TETRAS PSTS LS Mean Difference: Formula (I) - Placebo (95% CI) ([1]; Part B - RWD, RWAS, Day 70): −1.277 (−7.5286, 4.9741) | TETRAS ULS LS Mean Difference: Formula (I) - Placebo (95% CI) ([1]; Part B - RWD, RWAS, Day 70): −0.316 (−3.3765, 2.7441) | TETRAS mADL LS Mean Difference: Formula (I) - Placebo (95% CI) ([1]; Part B - RWD, RWAS, Day 70): −3.236 (−12.3264, 5.8538) | TETRAS ADL LS Mean CFB [1, 4]: 0.877 | TETRAS CULS LS Mean CFB [1, 4]: 1.525 | TETRAS PS Item 6: Archimedes Spiral (Left) LS Mean CFB [1, 4]: 0.394 | TETRAS PS Item 6: Archimedes Spiral (Right) LS Mean CFB [1, 4]: 0.087 | TETRAS PS Item 7: Handwriting LS Mean CFB [1, 4]: 0.037 | TETRAS PSTS LS Mean CFB [1, 4]: 1.174 | TETRAS ULS LS Mean CFB [1, 4]: 0.716 | TETRAS mADL LS Mean CFB [1, 4]: 1.350 | TETRAS ADL Mean CFB (SD) [1, 4]: 5.84 (16.276) | TETRAS CULS CTA (%) [1, 4]: 14.7% | TETRAS PS Item 6: Archimedes Spiral (Left) CTA (%) [1, 4]: 36.5% | TETRAS PS Item 6: Archimedes Spiral (Right) CTA (%) [1, 4]: 9.5% | TETRAS PS Item 7: Handwriting CTA (%) [1, 4]: 4.2% | TETRAS PSTS CTA (%) [1, 4]: 8.1% | TETRAS ULS CTA (%) [1, 4]: 12.8% | TETRAS mADL Mean CFB (SD) [1, 4]: 8.45 (34.208) | TETRAS ADL LS Mean CFB [1, 5]: 3.267 | TETRAS CULS LS Mean CFB [1, 5]: 3.156 | TETRAS PS Item 6: Archimedes Spiral (Left) LS Mean CFB [1, 5]: 0.384 | TETRAS PS Item 6: Archimedes Spiral (Right) LS Mean CFB [1, 5]: 0.353 | TETRAS PS Item 7: Handwriting LS Mean CFB [1, 5]: 0.189 | TETRAS PSTS LS Mean CFB [1, 5]: 3.422 | TETRAS ULS LS Mean CFB [1, 5]: 1.653 | TETRAS mADL LS Mean CFB [1, 5]: 4.353 | TETRAS ADL Mean CFB (SD) [1, 5]: 18.73 (24.838) | TETRAS CULS CTA (%) [1, 5]: 28.1% | TETRAS PS Item 6: Archimedes Spiral (Left) CTA (%) [1, 5]: 35.8% | TETRAS PS Item 6: Archimedes Spiral (Right) CTA (%) [1, 5]: 33.4% | TETRAS PS Item 7: Handwriting CTA (%) [1, 5]: 19.6% | TETRAS PSTS CTA (%) [1, 5]: 21.8% | TETRAS ULS CTA (%) [1, 5]: 27.2% | TETRAS mADL Mean CFB (SD) [1, 5]: 87.71 (126.281) | TETRAS ADL, Mean [1, 6]: 22.17 | TETRAS CULS, Mean [1, 6]: 19.33 | TETRAS PS Item 6: Archimedes Spiral (Left), Mean [1, 6]: 1.75 | TETRAS PS Item 6: Archimedes Spiral (Right), Mean [1, 6]: 1.75 | TETRAS PS Item 7: Handwriting, Mean [1, 6]: 1.75 | TETRAS PSTS, Mean [1, 6]: 22.83 | TETRAS ULS, Mean [1, 6]: 10.25 | TETRAS mADL (TETRAS modified total score), Mean [1, 6]: 12.17 | TETRAS ADL score, LS mean difference (Formula (I)—Placebo) ([1]; Part B RWD, Day 56): −9.578 | TETRAS combined upper limb score, LS mean difference (Formula (I)—Placebo) ([1]; Part B RWD, Day 56): −1.896 | TETRAS upper limb score, LS mean difference (Formula (I)—Placebo) ([1]; Part B RWD, Day 56): −0.253 | mADL total score, LS mean difference (Formula (I)—Placebo) ([1]; Part B RWD, Day 56): −8.439 | TETRAS ADL score, LS mean change from randomization baseline (Day 42) [1, 7]: 0.877 | TETRAS combined upper limb score, LS mean change from randomization baseline (Day 42) [1, 7]: 1.525 | TETRAS upper limb score, LS mean change from randomization baseline (Day 42) [1, 7]: 0.716 | increase in combined upper limb tremor amplitude [1, 7]: 14.7% | increase in upper limb tremor amplitude [1, 7]: 12.8% | mADL total score, LS mean change from randomization baseline (Day 42) [1, 7]: 1.350 | TEAE associated with discontinuation: Confusional state ([2]; Part B): 1 | TEAE associated with discontinuation: Cyst ([2]; Part B): 1 | TEAE associated with discontinuation: Disturbance in attention ([2]; Part B): 1 | TEAE leading to down titration: Confusional state ([2]; Part B): 1 | TEAE leading to down titration: Disturbance in attention ([2]; Part B): 1 | TEAE leading to down titration: Dizziness postural ([2]; Part B): 1 | TEAE leading to down titration: Paraesthesia ([2]; Part B): 1 | TEAE leading to down titration: Somnolence ([2]; Part B): 1 | participants who discontinued administration ([2]; Part B): three of 14 participants | participants who down-titrated ([2]; Part B): Four of 14 participants | TEAE Anxiety, participants ([2]; Part B Open Label (N = 14)): 1 | TEAE Cognitive Disorder, participants ([2]; Part B Open Label (N = 14)): 1 | TEAE Constipation, participants ([2]; Part B Open Label (N = 14)): 6 | TEAE Dizziness, participants ([2]; Part B Open Label (N = 14)): 4 | TEAE Fatigue, participants ([2]; Part B Open Label (N = 14)): 3 | TEAE Headache, participants ([2]; Part B Open Label (N = 14)): 1 | TEAE Insomnia, participants ([2]; Part B Open Label (N = 14)): 2 | TEAE Paraesthesia, participants ([2]; Part B Open Label (N = 14)): 2 | TEAE Fatigue, participants [2, 8]: 1 | TEAE Headache, participants [2, 8]: 1 | dosing well-tolerated with titration ([2]; Part B, essential tremor patients): up to 120 mg | TEAE associated with discontinuation: Gait disturbances [2, 9]: 1 | TEAE associated with discontinuation: Hypotension [2, 9]: 1 | TEAE associated with discontinuation: Muscle fatigue [2, 9]: 1 | TEAE associated with discontinuation: Speech disorder [2, 9]: 1
